Measured values published in patent US10350271B2, “Lipidated peptides for lowering blood glucose” (USTAV ORGANICKE CHEMIE A BIOCHEMIE AKADEMIE VED CR, V.V.I., priority 2014, dated 2019).
Ends that are not written are not given here. Peptide text beside a SMILES is read from it. * marks the point of attachment. Palmitoyl = CCCCCCCCCCCCCCCC(=O)*; Myristoyl = CCCCCCCCCCCCCC(=O)*

Experiments:
rat PrRP receptor = molecular target: T1, rat PrRP receptor (Rattus norvegicus, UniProt Q64121); assay: Competitive binding in RC-4B/C rat pituitary cells (125I-rat PrRP31); conditions: for % of PrRP31, RC-4B/C rat pituitary cells: affinity relative to PrRP31; for Ki: displacement of 125I-rat PrRP31, read-out: Ki, RC-4B/C rat pituitary cells ^25I-rat PrRP31
T1 construct: host or cells: RC-4B/C rat pituitary cell line
T1 sequence (Q64121 1-370): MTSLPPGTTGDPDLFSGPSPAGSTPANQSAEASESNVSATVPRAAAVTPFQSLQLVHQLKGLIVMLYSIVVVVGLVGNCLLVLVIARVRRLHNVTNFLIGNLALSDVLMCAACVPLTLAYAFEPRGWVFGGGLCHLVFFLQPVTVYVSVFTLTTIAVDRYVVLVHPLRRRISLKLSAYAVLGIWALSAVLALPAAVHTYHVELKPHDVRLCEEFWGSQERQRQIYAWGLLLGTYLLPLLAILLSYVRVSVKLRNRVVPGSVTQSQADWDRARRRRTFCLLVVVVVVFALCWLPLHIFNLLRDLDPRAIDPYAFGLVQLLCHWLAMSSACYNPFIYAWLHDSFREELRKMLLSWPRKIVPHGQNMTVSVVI
How it was run: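 Displacement of rat 125I-PrRP31 ([…]) by test analogs, 10^−11–10^−4 mol·l^−1, on whole RC-4B/C cells, 60 min RT. Bound counts measured by γ-counter in duplicate, ≥3 repeats, analyzed by nonlinear one-site binding regression.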

[1] = molecular target: T2, human PrRP receptor GPR10 (Homo sapiens, UniProt P49683); assay: Competitive binding in CHO cells transfected with human GPR10 (human 125I-PrRP31); conditions: for Ki: CHO cells, human 125I-PrRP31, read-out: Ki, GPR10 human receptor transfected in CHO cells; for % of PrRP31, GPR10 human receptor transfected in CHO cells: affinity relative to PrRP31
T2 construct: host or cells: CHO cells
T2 sequence (P49683 1-370): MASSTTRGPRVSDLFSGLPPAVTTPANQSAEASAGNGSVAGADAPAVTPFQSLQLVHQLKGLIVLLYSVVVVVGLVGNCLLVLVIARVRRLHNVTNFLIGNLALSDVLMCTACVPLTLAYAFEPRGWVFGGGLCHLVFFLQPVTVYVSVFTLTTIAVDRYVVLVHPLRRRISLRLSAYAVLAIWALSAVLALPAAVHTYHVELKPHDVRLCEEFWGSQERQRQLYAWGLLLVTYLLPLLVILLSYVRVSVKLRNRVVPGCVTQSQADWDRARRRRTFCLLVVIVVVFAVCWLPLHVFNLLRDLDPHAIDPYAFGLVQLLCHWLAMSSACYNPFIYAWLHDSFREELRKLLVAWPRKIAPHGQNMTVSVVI
How it was run: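 Values from one-site nonlinear regression of displacement curves: analogs (final 10^-11 to 10^-4 mol·l^-1) competed with 125I-PrRP31 (final 5×10^-11 mol·l^-1) on adherent human GPR10 CHO cells. Binding ran 1 h at room temperature, pH 7.4 buffer with NaCl, MgCl2, CaCl2, glucose, BSA; cell-bound radioactivity counted after NaOH lysis.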

C57BL/6 mice = assay: Food intake in fasted mice after SC injection; format: in vivo; conditions: 5 mg/kg SC, 45 min after injection
Procedure: NMRI mice, C57BL/6 mice, and Wistar rats (AnLab, Prague, Czech Republic) were housed in a temperature of 23° C. and a daily cycle of 12 h light and dark (light from 6:00). They were given ad libitum water and a standard chow diet that contained 25, 9 and 66% of calories of protein, fat and carbohydrate respectively. Energy content of the feed was 3.4 kcal/g (St-1, Mlýn Kocanda, Czech Republic). Db/db mice and their controls (C57BL/6 background) were obtained from Taconic (Denmark), housed under the same conditions as described above, and fed by Altromin (Taconic, Denmark). ZDF-Lepr^fa/Crl, diabetic fa/fa male rats were obtained from Charles River (France), housed under same conditions as described above, and fed with a Purina 5008 diet (IPS Product Supplies Limited, UK). All experiments followed the ethical guidelines for animal experiments and the law of the Czech Republic Nr. 246/1992.
In experiments with C57BL/6 mice or Wistar rats, food intake was measured with overnight fasted animals in individual cages. Food was withdrawn 17 hours prior to injection of lipidated analog of prolactin releasing peptide (PrRP); free access to water was maintained. The administration of either saline, PrRP, or lipidated analogs was performed by SC injection at doses of 1-10 mg/kg (which corresponded to a volume of 0.2 ml/mouse and 0.1 ml/100 g weight of rat). Fifteen minutes after the lipidated analog of prolactin releasing peptide (PrRP) administration, the mice were given pre-weighed food. The food was then weighed every 30 minutes for 5-10 hours. The administration of each dose was performed at least twice, and each group of mice consisted of at least 6 mice.

% of PrRP31, RC-4B/C rat pituitary cells (rat PrRP receptor) [%] | Ki [1] [nM] | % of PrRP31, GPR10 human receptor transfected in CHO cells [1] [%] | Displacement of rat 125I-PrRP binding (rat PrRP receptor; RC-4B/C cells, rat PrRP receptor) | Displacement of human 125I-PrRP binding ([1]; human GPR10 receptor) | Ki (rat PrRP receptor; RC-4B/C cells) [nM] | Compound | Food intake in mice % of saline-treated group (C57BL/6 mice) [%]
632 | 2.93 ± 0.2 | 133 |  |  |  | CCCCCCCCCCCCCC(=O)N[C@H](C(=O)N1CCC[C@H]1C(=O)N[C@@H](CC(=O)O)C(=O)N[C@H](C(=O)N[C@@H](CC(N)=O)C(=O)N1CCC[C@H]1C(=O)N[C@@H](C)C(=O)N[C@@H](Cc1c[nH]c2ccccc12)C(=O)N[C@@H](Cc1ccc(O)cc1)C(=O)N[C@H](C(=O)NCC(=O)N[C@@H](CCCNC(=N)N)C(=O)NCC(=O)N[C@H](C(=O)N[C@@H](CCCNC(=N)N)C(=O)N1CCC[C@H]1C(=O)N[C@H](C(=O)NCC(=O)N[C@@H](CCCNC(=N)N)C(=O)N[C@@H](Cc1ccccc1)C(N)=O)C(C)C)[C@@H](C)CC)[C@@H](C)O)[C@@H](C)CC)[C@@H](C)O [Analog 1] (Myristoyl-TPDINPAWYTGRGIRPVGRF-NH2) | 32
1027 |  | 90 | nmol·l^−1 range | nmol·l^−1 range |  | CCCCCCCCCCCCCC(=O)N[C@H](C(=O)N1CCC[C@H]1C(=O)N[C@@H](CC(=O)O)C(=O)N[C@H](C(=O)N[C@@H](CC(N)=O)C(=O)N1CCC[C@H]1C(=O)N[C@@H](C)C(=O)N[C@@H](Cc1c[nH]c2ccccc12)C(=O)N[C@@H](Cc1ccc(O)cc1)C(=O)N[C@@H](C)C(=O)N[C@@H](CO)C(=O)N[C@@H](CCCNC(=N)N)C(=O)NCC(=O)N[C@H](C(=O)N[C@@H](CCCNC(=N)N)C(=O)N1CCC[C@H]1C(=O)N[C@H](C(=O)NCC(=O)N[C@@H](CCCNC(=N)N)C(=O)N[C@@H](Cc1ccccc1)C(N)=O)C(C)C)[C@@H](C)CC)[C@@H](C)CC)[C@@H](C)O [Analog 2] (Myristoyl-TPDINPAWYASRGIRPVGRF-NH2) | 10
657 |  |  |  |  |  | CCCCCCCCCCCCCC(=O)N[C@@H](CO)C(=O)N[C@@H](CCCNC(=N)N)C(=O)N[C@@H](C)C(=O)N[C@@H](Cc1c[nH]cn1)C(=O)N[C@@H](CCC(N)=O)C(=O)N[C@@H](Cc1c[nH]cn1)C(=O)N[C@@H](CO)C(=O)N[C@@H](CCSC)C(=O)N[C@@H](CCC(=O)O)C(=O)N[C@H](C(=O)N[C@@H](CCCNC(=N)N)C(=O)N[C@H](C(=O)N1CCC[C@H]1C(=O)N[C@@H](CC(=O)O)C(=O)N[C@H](C(=O)N[C@@H](CC(N)=O)C(=O)N1CCC[C@H]1C(=O)N[C@@H](C)C(=O)N[C@@H](Cc1c[nH]c2ccccc12)C(=O)N[C@@H](Cc1ccc(O)cc1)C(=O)N[C@H](C(=O)NCC(=O)N[C@@H](CCCNC(=N)N)C(=O)NCC(=O)N[C@H](C(=O)N[C@@H](CCCNC(=N)N)C(=O)N1CCC[C@H]1C(=O)N[C@H](C(=O)NCC(=O)N[C@@H](CCCNC(=N)N)C(=O)N[C@@H](Cc1ccccc1)C(N)=O)C(C)C)[C@@H](C)CC)[C@@H](C)O)[C@@H](C)CC)[C@@H](C)O)[C@@H](C)O [Analog 46] (Myristoyl-SRAHQHSMETRTPDINPAWYTGRGIRPVGRF-NH2) | 20
1202 |  |  |  |  |  | CCCCCCCCCCCCCCCC(=O)N[C@@H](CO)C(=O)N[C@@H](CCCNC(=N)N)C(=O)N[C@@H](C)C(=O)N[C@@H](Cc1c[nH]cn1)C(=O)N[C@@H](CCC(N)=O)C(=O)N[C@@H](Cc1c[nH]cn1)C(=O)N[C@@H](CO)C(=O)N[C@@H](CCSC)C(=O)N[C@@H](CCC(=O)O)C(=O)N[C@H](C(=O)N[C@@H](CCCNC(=N)N)C(=O)N[C@H](C(=O)N1CCC[C@H]1C(=O)N[C@@H](CC(=O)O)C(=O)N[C@H](C(=O)N[C@@H](CC(N)=O)C(=O)N1CCC[C@H]1C(=O)N[C@@H](C)C(=O)N[C@@H](Cc1c[nH]c2ccccc12)C(=O)N[C@@H](Cc1ccc(O)cc1)C(=O)N[C@H](C(=O)NCC(=O)N[C@@H](CCCNC(=N)N)C(=O)NCC(=O)N[C@H](C(=O)N[C@@H](CCCNC(=N)N)C(=O)N1CCC[C@H]1C(=O)N[C@H](C(=O)NCC(=O)N[C@@H](CCCNC(=N)N)C(=O)N[C@@H](Cc1ccccc1)C(N)=O)C(C)C)[C@@H](C)CC)[C@@H](C)O)[C@@H](C)CC)[C@@H](C)O)[C@@H](C)O [Analog 47] (Palmitoyl-SRAHQHSMETRTPDINPAWYTGRGIRPVGRF-NH2) | 2
 | 7.24 ± 0.13 | 54 |  |  |  | CCCCCCCCCCCCCCCC(=O)NCCCC[C@H](NC(=O)[C@@H]1CCCN1C(=O)[C@H](CC(N)=O)NC(=O)[C@@H](NC(=O)[C@H](CC(=O)O)NC(=O)[C@@H]1CCCN1C(=O)[C@@H](NC(=O)[C@H](CCCNC(=N)N)NC(=O)[C@@H](NC(=O)[C@H](CCC(=O)O)NC(=O)[C@H](CCSC)NC(=O)[C@H](CO)NC(=O)[C@H](Cc1c[nH]cn1)NC(=O)[C@H](CCCNC(=N)N)NC(=O)[C@H](Cc1c[nH]cn1)NC(=O)[C@@H](NC(=O)[C@H](CCCNC(=N)N)NC(=O)[C@@H](N)CO)[C@@H](C)O)[C@@H](C)CC)[C@@H](C)O)[C@@H](C)CC)C(=O)N[C@@H](Cc1c[nH]c2ccccc12)C(=O)N[C@@H](Cc1ccc(O)cc1)C(=O)N[C@@H](C)C(=O)N[C@@H](CO)C(=O)N[C@@H](CCCNC(=N)N)C(=O)NCC(=O)N[C@H](C(=O)N[C@@H](CCCNC(=N)N)C(=O)N1CCC[C@H]1C(=O)N[C@H](C(=O)NCC(=O)N[C@@H](CCCNC(=N)N)C(=O)N[C@@H](Cc1ccccc1)C(N)=O)C(C)C)[C@@H](C)CC [Analog 51] (H-SRTHRHSMEIRTPDINPK(Palmitoyl)WYASRGIRPVGRF-NH2) | 20
207 |  |  |  |  | 2.38 ± 0.19 | CC[C@H](C)[C@H](NC(=O)CNC(=O)[C@H](CCCNC(=N)N)NC(=O)[C@H](CO)NC(=O)[C@H](C)NC(=O)[C@H](Cc1ccc(O)cc1)NC(=O)[C@H](Cc1c[nH]c2ccccc12)NC(=O)[C@H](C)NC(=O)[C@@H]1CCCN1C(=O)[C@H](CC(N)=O)NC(=O)[C@@H](NC(=O)[C@H](CC(=O)O)NC(=O)[C@@H]1CCCN1C(=O)[C@@H](NC(=O)[C@H](CCCNC(=N)N)NC(=O)[C@@H](NC(=O)[C@H](CCC(=O)O)NC(=O)[C@H](CCSC)NC(=O)[C@H](CO)NC(=O)[C@H](Cc1c[nH]cn1)NC(=O)[C@H](CCCNC(=N)N)NC(=O)[C@H](Cc1c[nH]cn1)NC(=O)[C@@H](NC(=O)[C@H](CCCNC(=N)N)NC(=O)[C@@H](N)CO)[C@@H](C)O)[C@@H](C)CC)[C@@H](C)O)[C@@H](C)CC)C(=O)N[C@@H](CCCNC(=N)N)C(=O)N1CCC[C@H]1C(=O)N[C@H](C(=O)NCC(=O)N[C@@H](CCCNC(=N)N)C(=O)N[C@@H](Cc1ccccc1)C(N)=O)C(C)C [Human PrRP31, reference compound] | 100
277 |  |  |  |  | 1.78 ± 0.46 | TPDINPAWYASRGIRPVGRF-NH2 [Human PrRP20, reference compound] | 100
